In ChEMBL document CHEMBL5338765, “Discovery of Potent and Wild-Type-Sparing Fourth-Generation EGFR Inhibitors for Treatment of Osimertinib-Resistance NSCLC” (J Med Chem, 2023):

What was measured:
in vivo [1] = conditions: Sprague-Dawley, rat, iv, 1 mg/kg
in vivo [2] = conditions: Sprague-Dawley, rat, iv, 1 mg/kg; remark: listed apart in the source
in vivo [3] = conditions: Sprague-Dawley, rat, iv, 1 mg/kg; remark: listed apart in the source
in vivo [4] = conditions: Sprague-Dawley, rat, po, 10 mg/kg
in vivo [5] = conditions: Sprague-Dawley, rat, po, 10 mg/kg; remark: listed apart in the source
in vivo [6] = conditions: Sprague-Dawley, rat, po, 10 mg/kg; remark: listed apart in the source
in vivo [7] = conditions: Sprague-Dawley, rat, iv, 1 mg/kg; remark: listed apart in the source
in vivo [8] = conditions: Sprague-Dawley, rat, po, 10 mg/kg; remark: listed apart in the source
in vivo [9] = conditions: Sprague-Dawley, rat, po, 10 mg/kg; remark: listed apart in the source
in vivo [10] = conditions: Sprague-Dawley, rat, po, 10 mg/kg; remark: listed apart in the source
in vivo [11] = conditions: Sprague-Dawley, rat, iv, 1 mg/kg; remark: listed apart in the source
in vivo [12] = conditions: Sprague-Dawley, rat, po, 10 mg/kg; remark: listed apart in the source
in vivo [13] = conditions: Sprague-Dawley, rat, iv, 1 mg/kg; remark: listed apart in the source

For `CCS(=O)(=O)n1cc(-c2nc(Nc3ccc4c(ccn4CCN(C)C)c3)ncc2C(F)(F)F)c2ccccc21`, the Tmax at 24 h (in vivo [1]) was 4.8 min, the half-life at 24 h (in vivo [2]) was 3.67 h and the clearance at 24 h (in vivo [3]) was 70.2 mL/min/kg. The Tmax at 24 h (in vivo [4]) was 8 h, the bioavailability at 24 h (in vivo [5]) was 28.1% and the AUC(0-inf) at 24 h (in vivo [6]) was 678 ng·h/mL. It also gave a Cmax at 24 h (in vivo [7]) of 130 ng/mL, a CL/F at 24 h (in vivo [8]) of 278 mL/min/kg and an MRT inf at 24 h (in vivo [9]) of 9.62 h. For the same molecule, the Cmax at 24 h (in vivo [10]) was 54.7 ng/mL, the MRT inf at 24 h (in vivo [11]) was 4.33 h and the half-life at 24 h (in vivo [12]) was 5.37 h. It also gave an AUC(0-inf) at 24 h (in vivo [13]) of 242 ng·h/mL.
